# Reference: publication PMC7044277 (Nature Communications, 2020)
# Several values for one entry are separate records, joined by “and”; a condition that tells them apart may be missing. Identical values can stand only once.
# Legend:
# 5HT2A = 5HT2A (Homo sapiens, UniProt P28223); experiment: β-arrestin2 recruitment (Tango); format: cell-based; details: single replicate values
# 5HT1A = biological target: T1, 5HT1A (Homo sapiens, UniProt P08908); experiment: β-arrestin2 recruitment (Tango); format: cell-based; details: Fig_S10f, single replicates
# T1 construct: expressed in transfected cells; host or cells: HTLA cells expressing TEV-fused β-arrestin2
# T1 sequence (P08908 1-422): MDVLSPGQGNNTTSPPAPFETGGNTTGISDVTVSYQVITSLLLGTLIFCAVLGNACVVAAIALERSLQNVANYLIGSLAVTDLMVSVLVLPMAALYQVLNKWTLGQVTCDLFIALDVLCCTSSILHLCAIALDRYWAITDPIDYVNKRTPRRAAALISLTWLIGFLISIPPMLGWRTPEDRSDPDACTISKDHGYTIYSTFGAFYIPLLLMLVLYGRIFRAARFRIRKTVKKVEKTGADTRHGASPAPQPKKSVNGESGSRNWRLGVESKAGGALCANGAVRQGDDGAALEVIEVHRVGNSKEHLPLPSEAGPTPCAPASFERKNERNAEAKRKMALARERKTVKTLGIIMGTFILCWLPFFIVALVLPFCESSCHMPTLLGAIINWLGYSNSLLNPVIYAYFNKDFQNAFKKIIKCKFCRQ
# 320 non-olfactory GPCRs = format: cell-based; details: compound at 1 μM
# DRD2 F1103.28L = biological target: T2, DRD2 F1103.28L (Homo sapiens, UniProt P14416, F110L); experiment: β-arrestin2 recruitment (Tango), mutant; format: cell-based
# T2 construct: expressed in transfected cells; host or cells: HEK293T (ATCC CRL-11268)
# DRD3 F1063.28A = DRD3 F1063.28A (Homo sapiens, UniProt P35462, F106A); experiment: biochemical; format: binding
# DRD2 F1103.28A [1] = biological target: T3, DRD2 F1103.28A (Homo sapiens, UniProt P14416, F110A); experiment: Gαi/o-mediated cAMP inhibition (GloSensor), mutant; format: cell-based; parameters: expressed in transfected cells; host or cells: HEK293T (ATCC CRL-11268)
# DRD2 F1103.28A [2] = biological target: T3, DRD2 F1103.28A; format: binding; parameters: expressed in transfected cells; host or cells: HEK293T (ATCC CRL-11268); details: DRD2 F1103.28A; read-out: Ki
# 5HT1E = 5HT1E (Homo sapiens, UniProt P28566); experiment: β-arrestin2 recruitment (Tango); format: cell-based; details: Fig_S10i
# 5HT1E, sequence (P28566 whole entry): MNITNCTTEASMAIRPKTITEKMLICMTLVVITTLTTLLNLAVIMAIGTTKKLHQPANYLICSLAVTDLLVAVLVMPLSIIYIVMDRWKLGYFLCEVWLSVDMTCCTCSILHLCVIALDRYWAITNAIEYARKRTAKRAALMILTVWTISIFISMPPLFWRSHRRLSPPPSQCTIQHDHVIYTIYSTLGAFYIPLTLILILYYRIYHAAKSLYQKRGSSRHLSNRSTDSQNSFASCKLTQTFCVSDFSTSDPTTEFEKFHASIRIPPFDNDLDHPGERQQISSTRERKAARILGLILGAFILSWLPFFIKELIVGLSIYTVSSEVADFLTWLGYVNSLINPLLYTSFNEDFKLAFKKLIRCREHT
# 5HT2A, sequence (P28223 whole entry): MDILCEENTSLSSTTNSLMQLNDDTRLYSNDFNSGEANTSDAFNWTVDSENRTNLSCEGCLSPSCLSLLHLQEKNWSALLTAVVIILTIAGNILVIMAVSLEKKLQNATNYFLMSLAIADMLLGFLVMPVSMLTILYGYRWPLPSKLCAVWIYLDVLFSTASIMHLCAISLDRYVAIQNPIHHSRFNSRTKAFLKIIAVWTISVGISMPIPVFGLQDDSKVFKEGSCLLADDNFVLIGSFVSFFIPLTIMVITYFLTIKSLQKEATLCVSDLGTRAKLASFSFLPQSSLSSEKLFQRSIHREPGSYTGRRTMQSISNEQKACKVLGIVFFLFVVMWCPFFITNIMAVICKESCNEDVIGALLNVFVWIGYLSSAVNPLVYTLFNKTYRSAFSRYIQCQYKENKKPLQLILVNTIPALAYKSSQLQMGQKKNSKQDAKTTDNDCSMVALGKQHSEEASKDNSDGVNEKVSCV
# T2 sequence (P14416 whole entry F110L): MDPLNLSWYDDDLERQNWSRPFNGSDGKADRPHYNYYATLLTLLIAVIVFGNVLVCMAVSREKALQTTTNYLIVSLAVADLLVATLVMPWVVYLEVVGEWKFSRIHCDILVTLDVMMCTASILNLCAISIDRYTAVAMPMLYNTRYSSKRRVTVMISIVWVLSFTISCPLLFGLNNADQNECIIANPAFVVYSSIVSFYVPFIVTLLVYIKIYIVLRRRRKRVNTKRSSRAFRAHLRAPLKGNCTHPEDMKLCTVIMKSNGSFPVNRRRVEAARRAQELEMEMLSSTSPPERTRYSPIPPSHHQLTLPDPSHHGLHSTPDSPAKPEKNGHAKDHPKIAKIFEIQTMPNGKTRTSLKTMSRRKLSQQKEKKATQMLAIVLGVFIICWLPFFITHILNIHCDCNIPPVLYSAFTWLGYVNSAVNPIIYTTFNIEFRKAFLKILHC
# T3 sequence (P14416 whole entry F110A): as the sequence (P14416 whole entry F110L) above, with L110A counted along it
# DRD3 F1063.28A, sequence (P35462 whole entry F106A): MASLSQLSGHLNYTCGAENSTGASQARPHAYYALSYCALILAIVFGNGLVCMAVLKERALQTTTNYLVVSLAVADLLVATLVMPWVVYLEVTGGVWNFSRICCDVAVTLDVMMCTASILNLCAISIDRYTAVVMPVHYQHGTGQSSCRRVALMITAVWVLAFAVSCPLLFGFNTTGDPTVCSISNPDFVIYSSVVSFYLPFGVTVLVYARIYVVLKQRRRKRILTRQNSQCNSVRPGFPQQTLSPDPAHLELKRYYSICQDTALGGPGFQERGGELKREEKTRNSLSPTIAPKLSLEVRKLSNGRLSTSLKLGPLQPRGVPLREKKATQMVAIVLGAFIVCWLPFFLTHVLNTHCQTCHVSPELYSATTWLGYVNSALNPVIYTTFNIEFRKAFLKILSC
smiles,measurement,setting,value
CCOc1cccc2cc([C@@H](C)NCC3(O)CCCCC3)oc12 [O4RE6],"Fig_S10k dose-response, drug alone (agonist mode), β-arrestin2 recruitment",5HT2A; Log[Drug] -6.52,-0.1908
same,"Fig_S10k dose-response, drug alone (agonist mode), β-arrestin2 recruitment",5HT2A; Log[Drug] -7,0.697 and 0.4035 and 0.09538 and 0.6532 and -1.18 and 3.874 and 0.7119 and 4.575 and 2.4436
same,"Fig_S10k dose-response, drug alone (agonist mode), β-arrestin2 recruitment",5HT2A; Log[Drug] -7.52,0.4035 and -0.7777 and -0.1834 and -1.703 and -0.8871 and -1.1926 and 2.795 and 3.208 and 1.294
same,"Fig_S10k dose-response, drug alone (agonist mode), β-arrestin2 recruitment",5HT2A; Log[Drug] -8,1.5774 and 2.458 and -0.4916 and -0.4094 and -2.089 and 0.5329 and 11.4772 and 3.9492 and 2.4436
same,"Fig_S10k dose-response, drug alone (agonist mode), β-arrestin2 recruitment",5HT2A; Log[Drug] -8.52,-0.8437 and 0.3668 and 0.9905 and -1.355 and 3.003 and -0.7312 and 3.002 and 2.824 and 3.026
same,"Fig_S10k dose-response, drug alone (agonist mode), β-arrestin2 recruitment",5HT2A; Log[Drug] -9,16.8085 and 6.2069 and -0.2128 and 11.6986 and 0.5297 and -1.349 and 1.8808 and 2.833 and 2.6312
same,"Fig_S10k dose-response, drug alone (agonist mode), β-arrestin2 recruitment",5HT2A; Log[Drug] -9.52,-0.5503 and 0.3742 (2×) and -0.2437 and 18.2855 and 12.0983 and 1.862 and 3.213 and 3.608
same,"Fig_S10k dose-response, drug alone (agonist mode), β-arrestin2 recruitment",5HT2A; Log[Drug] -10,0.4035 and 2.4358 and 3.331 and 0.1365 and -1.683 and 9.281 and 2.751 and 3.406 and 1.477
same,"Fig_S10k dose-response, drug alone (agonist mode), β-arrestin2 recruitment",5HT2A; Log[Drug] -10.52,-0.4916 and 0.9758 and -0.7997 and 1.29 and 4.65 and 10.4637 and 6.306 and 3.973 and 2.054
same,"Fig_S10k dose-response, drug alone (agonist mode), β-arrestin2 recruitment",5HT2A; Log[Drug] -11,2.45 and 2.135 and 3.331 and -1.706 and -2.372 and 0.351 and 0.3319 and 2.848 and 1.106
same,"Fig_S10k dose-response, drug alone (agonist mode), β-arrestin2 recruitment",5HT2A; Log[Drug] -11.52,0.3302 and 0.9611 and 1.255 and 6.574 and 5.31 and 2.18 and 0.7408 and 1.698 and 1.477
same,"Fig_S10k dose-response, drug alone (agonist mode), β-arrestin2 recruitment",5HT2A; Log[Drug] -12,0.3962 and 4.798 and 3.859 and -0.7864 and -1.57 and 2.356 and 1.337 and 0.7456 and 3.045
same,"β-arrestin2 recruitment response, agonist mode (normalized)",5HT1A; Log[Drug] -9.52,-0.3383 and -0.3342 and -0.9983 and -0.221 and -0.03249 and 2.194 and -0.4129 and -0.6658 and 0.08323
same,"β-arrestin2 recruitment response, agonist mode (normalized)",5HT1A; Log[Drug] -10,-0.1671 and -0.3383 and -0.5054 and -0.1386 and -0.3173 and 2.583 and 0.605 and 2.666 and 1.376
same,"β-arrestin2 recruitment response, agonist mode (normalized)",5HT1A; Log[Drug] -10.52,0 and 0.5013 and 0.1546 and 0.5578 and -0.1419 and 1.096 and 1.898 and -0.4417 and 0.06082
same,"β-arrestin2 recruitment response, agonist mode (normalized)",5HT1A; Log[Drug] -11,-0.5138 and -0.6767 and 1.165 and 0.7257 and 0.3249 and 3.762 and 0.9795 and 5.224 and 0.4673
same,"β-arrestin2 recruitment response, agonist mode (normalized)",5HT1A; Log[Drug] -11.52,1.8254 and -0.1796 and 0.1546 and 0.208 and -0.007582 and -0.4495 and -0.8035 and 0.7362 and -0.4065
same,"β-arrestin2 recruitment response, agonist mode (normalized)",5HT1A; Log[Drug] -12,-0.1713 and 0.3383 and -0.1671 and 0.2155 and 0.391 and -0.6055 and 0.7554 and -0.4001 and 0.1248
same,agonism across 320 nonolfactory GPCRs,320 non-olfactory GPCRs,agonist efficacy at DRD2 and DRD3
same,EC50,DRD2 F1103.28L,0.215 µM
same,Emax,DRD2 F1103.28L; read-out: Emax relative to quinpirole response,7.76%
same,Ki,DRD3 F1063.28A,1.05 µM
same,EC50,DRD2 F1103.28A [1],> 10 µM
same,Ki,DRD2 F1103.28A [2],0.49 µM
same,"β-arrestin2 recruitment response, agonist mode (single replicate values)",5HT1E; Log[Drug] -5.52,-0.8838
same,"β-arrestin2 recruitment response, agonist mode (single replicate values)",5HT1E; Log[Drug] -6,5.169 and -3.421 and -7.045 and -2.335 and -9.923 and 2.004 and -14.6813 and -14.4526 and -10.0186
same,"β-arrestin2 recruitment response, agonist mode (single replicate values)",5HT1E; Log[Drug] -6.52,5.136 and -8.797 and -1.582 and 6.94 and -5.772 and 9.5977 and -9.147 and -14.4969 and -14.6019
same,"β-arrestin2 recruitment response, agonist mode (single replicate values)",5HT1E; Log[Drug] -7,-9.403 and -3.356 and -7.031 and 6.361 and -8.019 and 5.611 and -6.317 and -9.482 and -17.1569
same,"β-arrestin2 recruitment response, agonist mode (single replicate values)",5HT1E; Log[Drug] -7.52,-7.7314 and -4.654 and -9.0776 and 5.71 and 2.776 and -4.782 and -16.2446 and -11.396 and -8.341
same,"β-arrestin2 recruitment response, agonist mode (single replicate values)",5HT1E; Log[Drug] -8,-0.303 and 2.682 and 0.8105 and -16.5035 and -1.474 and 1.2682 and -16.075 and -2.697 and -15.9171
same,"β-arrestin2 recruitment response, agonist mode (single replicate values)",5HT1E; Log[Drug] -8.52,-6.877 and -0.9842 and -10.6793 and 4.799 and 9.189 and -4.891 and 2.59 and -7.1 and -6.491
same,"β-arrestin2 recruitment response, agonist mode (single replicate values)",5HT1E; Log[Drug] -9,-3.28 and 6.173 and 0.4053 and -14.2337 and -0.6567 and 5.487 and -22.7397 and -14.6836 and -5.277
same,"β-arrestin2 recruitment response, agonist mode (single replicate values)",5HT1E; Log[Drug] -9.52,-0.2537 and -8.594 and -3.456 and -0.4529 and -8.792 and -9.322 and -17.3288 and -4.524 and -7.744
same,"β-arrestin2 recruitment response, agonist mode (single replicate values)",5HT1E; Log[Drug] -10,-3.52 and -2.38 and 3.183 and -31.9257 and 29.8123 and -9.337 and -10.0295 and -4.283 and -12.1769
same,"β-arrestin2 recruitment response, agonist mode (single replicate values)",5HT1E; Log[Drug] -10.52,0.1347 and 0.5117 and -4.0638 and -13.472 and -7.0659 and -13.7571 and -9.427 and -7.368 and -17.0465
same,"β-arrestin2 recruitment response, agonist mode (single replicate values)",5HT1E; Log[Drug] -11,7.882 and 2.36 and 5.579 and -8.103 and -1.831 and -9.017 and -8.127 and -1.8482 and -12.9803
